Experimental data published in patent publication US10077284B2, “UBA5 inhibitors” (THE GOVERNING COUNCIL OF THE UNIVERSITY OF TORONTO, priority 2014, dated 2018).
Where two headings read alike, the source gives them in different places.

Target: T1, GST-UBA5 (Homo sapiens, UniProt Q9GZZ9)
T1 construct: made in house
Assay: UBA5 transthiolation assay (UFC1-UFM1 conjugate formation)
Type: biochemical
Details: for inhibition at 0.1 µM: [Ligand] 0.1 μM; for inhibition at 0.1 µM / inhibition at 1 µM / inhibition at 5 µM / inhibition at 10 µM / inhibition at 50 µM / inhibition at 100 µM: n = 1; for inhibition at 1 µM: [Ligand] 1 μM; for inhibition at 5 µM: [Ligand] 5 μM; for inhibition at 10 µM: [Ligand] 10 μM; for inhibition at 50 µM: [Ligand] 50 μM; for inhibition at 100 µM: [Ligand] 100 μM; for IC50: read-out: IC50

[1] = Table 1, transthiolation enzymatic assay
[2] = Table 3, n = 3, tested 0.1-100 μM

T1 sequence (Q9GZZ9 whole entry): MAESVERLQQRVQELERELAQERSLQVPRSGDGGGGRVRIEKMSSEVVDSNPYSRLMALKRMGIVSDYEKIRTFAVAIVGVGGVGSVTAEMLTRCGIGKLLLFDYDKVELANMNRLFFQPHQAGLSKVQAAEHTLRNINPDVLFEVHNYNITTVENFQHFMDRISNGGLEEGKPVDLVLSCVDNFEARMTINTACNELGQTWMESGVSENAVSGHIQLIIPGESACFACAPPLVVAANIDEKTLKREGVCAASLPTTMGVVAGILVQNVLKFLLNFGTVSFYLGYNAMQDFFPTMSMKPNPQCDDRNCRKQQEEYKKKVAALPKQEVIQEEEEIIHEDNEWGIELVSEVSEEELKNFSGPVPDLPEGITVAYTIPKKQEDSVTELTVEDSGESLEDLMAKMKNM
Experimental: Initial rates were recorded over 30 second time intervals from 0 to 2.5 min (normal kinetics) or 0 to 5 min (inhibition kinetics). Reactions were initiated by the addition of ATP and stopped using 4× Laemmli sample buffer (BioRad). The generated protein conjugates were separated on a 10% non-degenerating SDS-polyacrylamide gel (4-15% gels were used for the UAE transthiolaton assay), followed by Western blot analysis, with the exception of GST-UBA5 where protein bands were detected using Coomassie™ Brilliant Blue R-250 staining or Stain-Free gel imaging for the enzymatic assays (Bio-Rad). Transfers for the UAE and NAE immunoblots were performed using nitrocellulose membranes and blocking and blotting was performed as described above with cellular protein extracts. The His6-tagged Ub-UBCH6 complex was detected using an anti-His mouse monoclonal primary antibody (1:500, abcam). A rabbit anti-NEDD8 polyclonal primary antibody (1:500, BostonBiochem) was used for the detection of the E2-NEDD8 complexes. […] Inhibitory data was fit to a dose-response curve (Y=Bottom+(Top−Bottom)/(1+10^(X-Log IC50))) using GraphPad Prism 6.

`Nc1ncnc2c1ncn2[C@@H]1O[C@H](C(=O)NCC(=O)N2CCNCCNCCNCC2)[C@@H](O)[C@H]1O` [Compound 1.1, (2S,3S,4R,5R)-5-(6-amino-9H-purin-9-yl)-3,4-dihydroxy-N-(2-oxo-2-(1,4,7,10-tetraazacyclododecan-1-yl)ethyl)tetrahydrofuran-2-carboxamide] showed an inhibition at 0.1 µM of 0%, an inhibition at 1 µM of 25% and an inhibition at 5 µM of 41%. The inhibition at 10 µM was 31%, the inhibition at 50 µM was 4% and the inhibition at 100 µM was 26%.
`Nc1ncnc2c1ncn2[C@@H]1O[C@H](C(=O)NCCN2CCCNCCNCCCNCC2)[C@@H](O)[C@H]1O.[Zn+2]` [Compound 1.1.A.Cy.Zn, (2S,3S,4R,5R)—N-(2-(1,4,8,11-tetraazacyclotetradecan-1-yl)ethyl)-5-(6-amino-9H-purin-9-yl)-3,4-dihydroxytetrahydrofuran-2-carboxamide, zinc(II) trifluoromethanesulfonate] gave an IC50 (Table 5, n = 3) of 20 µM.
For `Nc1ncnc2c1ncn2[C@@H]1O[C@H](C(=O)NCCN2CCNCCNCCNCC2)[C@@H](O)[C@H]1O.[Zn+2]` [Compound 1.1.A.Zn, (2S,3S,4R,5R)—N-(2-(1,4,7,10-tetraazacyclododecan-1-yl)ethyl)-5-(6-amino-9H-purin-9-yl)-3,4-dihydroxytetrahydrofuran-2-carboxamide, zinc(II) trifluoromethanesulfonate], the IC50 (Table 5, n = 3) was 7.61 µM.
`Nc1ncnc2c1ncn2[C@@H]1O[C@H](C(=O)NCC(=O)N2CCCNCCNCCCNCC2)[C@@H](O)[C@H]1O.[Zn+2]` [Compound 1.1.Cy.Zn, (2S,3S,4R,5R)-5-(6-amino-9H-purin-9-yl)-3,4-dihydroxy-N-(2-oxo-2-(1,4,8,11-tetraazacyclotetradecan-1-yl)ethyl)tetrahydrofuran-2-carboxamide, zinc(II) trifluromethanesulfonate] was tested, and the IC50 (Table 4, n = 3) was 4.24 µM.
`Nc1ncnc2c1ncn2[C@@H]1O[C@H](C(=O)NCCC(=O)N2CCNCCNCCNCC2)[C@@H](O)[C@H]1O.[Zn+2]` [Compound 1.2.Zn, (2S,3S,4R,5R)-5-(6-amino-9H-purin-9-yl)-3,4-dihydroxy-N-(3-oxo-3-(1,4,7,10-tetraazacyclododecan-1-yl)propyl)tetrahydrofuran-2-carboxamide zinc (II) trifluoromethanesulfonate] showed an IC50 [1] of 8.9 µM.
Work on `Nc1ncnc2c1ncn2[C@@H]1O[C@H](C(=O)NCCCC(=O)N2CCNCCNCCNCC2)[C@@H](O)[C@H]1O` [Compound 1.3, (2S,3S,4R,5R)-5-(6-amino-9H-purin-9-yl)-3,4-dihydroxy-N-(4-oxo-4-(1,4,7,10-tetraazacyclododecan-1-yl)butyl)tetrahydrofuran-2-carboxamide] yielded an inhibition at 0.1 µM of 24%, an inhibition at 1 µM of 10% and an inhibition at 5 µM of 17%. It also gave an inhibition at 10 µM of 28%, an inhibition at 50 µM of 11% and an inhibition at 100 µM of 0%.
`Nc1ncnc2c1ncn2[C@@H]1O[C@H](C(=O)NCCCC(=O)N2CCNCCNCCNCC2)[C@@H](O)[C@H]1O.[Zn+2]` [Compound 1.3.Zn, (2S,3S,4R,5R)-5-(6-amino-9H-purin-9-yl)-3,4-dihydroxy-N-(4-oxo-4-(1,4,7,10-tetraazacyclododecan-1-yl)butyl)tetrahydrofuran-2-carboxamide zinc (II) trifluoromethanesulfonate] showed an IC50 [1] of 23.3 µM.
Work on `Nc1ncnc2c1ncn2[C@@H]1O[C@H](C(=O)NCCCCC(=O)N2CCNCCNCCNCC2)[C@@H](O)[C@H]1O.[Zn+2]` [Compound 1.4.Zn, (2S,3S,4R,5R)-5-(6-amino-9H-purin-9-yl)-3,4-dihydroxy-N-(5-oxo-5-(1,4,7,10-tetraazacyclododecan-1-yl)pentyl)tetrahydrofuran-2-carboxamide zinc (II) trifluoromethanesulfonate] yielded an IC50 [1] of 5.2 µM.
Work on `Nc1ncnc2c1ncn2[C@@H]1O[C@H](C(=O)NCCCCCCN2CCNCCNCCNCC2)[C@@H](O)[C@H]1O.[Zn+2]` [Compound 1.5.A.Zn, (2S,3S,4R,5R)—N-(6-(1,4,7,10-tetraazacyclododecan-1-yl)hexyl)-5-(6-amino-9H-purin-9-yl)-3,4-dihydroxytetrahydrofuran-2-carboxamide, zinc(II) trifluromethanesulfonate] yielded an IC50 (Table 5, n = 3) of 38.2 µM.
For `O=C(NCCCCCC(=O)N1CCNCCNCCNCC1)[C@H]1O[C@@H](n2cnc3c(N[C@H]4CCc5ccccc54)ncnc32)[C@H](O)[C@@H]1O.[Zn+2]` [Compound 1.5.An6.Zn, (2S,3S,4R,5R)-5-(6-(((S)-2,3-dihydro-1H-inden-1-yl)amino)-9H-purin-9-yl)-3,4-dihydroxy-N-(6-oxo-6-(1,4,7,10-tetraazacyclododecan-1-yl)hexyl)tetrahydrofuran-2-carboxamide, zinc(II) trifluoromethanesulfate], the IC50 (Table 6, n = 3) was 13.6 µM.
In the case of `Nc1ncnc2c1ncn2[C@@H]1O[C@H](C(=O)NCCCCCC(=O)N2CCNCCNCCNCC2)[C@@H](O)[C@H]1O.O=S(=O)([O-])C(F)(F)F.O=S(=O)([O-])C(F)(F)F.[Cu+2]` [Compound 1.5.Cu, (2S,3S,4R,5R)—N-(6-(1,4,7,10-tetraazacyclododecan-1-yl)-6-oxohexyl)-5-(6-amino-9H-purin-9-yl)-3,4-dihydroxytetrahydrofuran-2-carboxamide copper (II) trifluoromethanesulfonate], the IC50 [2] is reported as over 100 µM.
With `C1CNCCNCCNCCN1.[Zn+2]` [zinc(II) cyclen complex, reference compound] the “effect on the transthiolation reaction” value (at 100 μM) was “able to impede the transthiolation reaction”.
Compound “(2S,3S,4R,5R)-5-(6-(((S)-2,3-dihydro-1H-inden-1-yl)amino)-9H-purin-9-yl)-3,4-dihydroxy-N-(6-oxo-6-(1,4,7,10-tetraazacyclododecan-1-yl)hexyl)tetrahydrofuran-2-carboxamide, copper(II) trifluoromethanesulfonate [Compound 1.5.An6.Cu]” has an IC50 (Table 6, n = 3) of 12.5 µM.
With “(2S,3S,4R,5R)-5-(6-amino-9H-purin-9-yl)-3,4-dihydroxy-N-(2-oxo-2-(1,4,7,10-tetraazacyclododecan-1-yl)ethyl)tetrahydrofuran-2-carboxamide zinc (II) trifluromethanesulfonate [Compound 1.1.Zn]” the IC50 [1] was 10.5 µM and the IC50 (Table 5, n = 3) was 10.5 µM.
“(2S,3S,4R,5R)-5-(6-amino-9H-purin-9-yl)-3,4-dihydroxy-N-(2-oxo-2-(1,4,7,10-tetraazacyclododecan-1-yl)ethyl)tetrahydrofuran-2-carboxamide, copper(II) trifluromethanesulfonate [Compound 1.1.Cu]” showed an IC50 [2] of over 100 µM.
For “(2S,3S,4R,5R)-5-(6-amino-9H-purin-9-yl)-3,4-dihydroxy-N-(2-oxo-2-(1,4,8,11-tetraazacyclotetradecan-1-yl)ethyl)tetrahydrofuran-2-carboxamide, copper(II) trifluoromethanesulfonate [Compound 1.1.Cy.Cu]”, the IC50 (Table 4, n = 3) was 45.4 µM.
With “(2S,3S,4R,5R)-5-(6-amino-9H-purin-9-yl)-3,4-dihydroxy-N-(3-oxo-3-(1,4,7,10-tetraazacyclododecan-1-yl)propyl)tetrahydrofuran-2-carboxamide, copper(II) trifluromethanesulfonate [Compound 1.2.Cu]” the IC50 [2] was 39.6 µM.
Compound “(2S,3S,4R,5R)-5-(6-amino-9H-purin-9-yl)-3,4-dihydroxy-N-(4-oxo-4-(1,4,7,10-tetraazacyclododecan-1-yl)butyl)tetrahydrofuran-2-carboxamide, copper(II) trifluromethanesulfonate [Compound 1.3.Cu]” has an IC50 [2] of over 100 µM.
With “(2S,3S,4R,5R)-5-(6-amino-9H-purin-9-yl)-3,4-dihydroxy-N-(5-oxo-5-(1,4,7,10-tetraazacyclododecan-1-yl)pentyl)tetrahydrofuran-2-carboxamide, copper(II) trifluoromethanesulfonate [Compound 1.4.Cu]” the IC50 [2] was 38.8 µM.
“(2S,3S,4R,5R)—N-(2-(1,4,7,10-tetraazacyclododecan-1-yl)ethyl)-5-(6-amino-9H-purin-9-yl)-3,4-dihydroxytetrahydrofuran-2-carboxamide, copper(II) trifluromethanesulfonate [Compound 1.1.A.Cu]” gave an IC50 (Table 5, n = 3) of 21.1 µM.
With “(2S,3S,4R,5R)—N-(6-(1,4,7,10-tetraazacyclododecan-1-yl)hexyl)-5-(6-amino-9H-purin-9-yl)-3,4-dihydroxytetrahydrofuran-2-carboxamide, copper(II) trifluromethanesulfonate [Compound 1.5.A.Cu]” the IC50 (Table 5, n = 3) was over 100 µM.
